Data set [1] concerns guinea pigs. Description: Effect of single oral doses of Moxifloxacin on QTc interval of instrumented guinea pigs, without or with 14:0 lyso PG. It is filed as in vivo, guinea pig.
Data set [2] deals with guinea pigs. The data set can be described thus: Effect of Fingolimod, verapamil and 14:0 lyso PG on QTc interval in instrumented guinea pigs. It is filed as in vivo, guinea pig.
In data set [3] the test system is guinea pigs. The data set can be described thus: Effect of Fingolimod, verapamil and 14:0 lyso PG on PR intervals / AV block in instrumented guinea pigs. In kind it is in vivo, guinea pig. The protocol:
PR intervals were measured following the infusion of Fingolimod. Measurements of PR were stopped when the P wave disconnected from the QRS complexes, indicating 3rd degree AV block.
Fingolimod was administered by intravenous infusion to instrumented guinea pigs at doses ranging from 3 μg/kg to 300 μg/kg (n=6, green series, above). The intravenous route of administration was selected because it simplified the pharmacokinetics of this multi-drug experiment.
Again, the intravenous route of administration for both drugs was selected to simplify the kinetics of the experiment.

The subject of data set [4] is normal subjects and cancer patients. The data set can be described thus: Phase 1a and 1b clinical studies of liposomal curcumin (14:0 lyso PG). In kind it is in vivo, human. The text has this: To date, 45 normal subjects and 28 cancer patients have been tested in Phase 1a and 1b (ongoing) studies, respectively.
Data set [5] is described as follows: Prevention of drug-induced QTc prolongation in regulatory-validated preclinical models. The note with it: against Moxifloxacin; Nilotinib; Crizotinib; Sotalol; Curcumin; Nifedipine; Lovastatin; Thioridazine; Amiodarone; Terfenadine; E4031; Felbamate; Gilenya; Quizartinib (AC220); Forskolin; Turmerone. In kind it is in vivo.
For data set [6], the system named is clinical volunteers and patients. The note with it: cited from earlier work.
In a further data set the target is IKr (Homo sapiens, UniProt Q12809). The note with it: cited from earlier work.
The mark [7] stands for this setting: 14:0 lyso PG given orally prior to Fingolimod and/or verapamil.
Where [8] appears, read: 0.5 mg/kg verapamil i.v. 60 minutes before Fingolimod infusion.
The mark [9] stands for this setting: intravenous infusion of Fingolimod alone.
[10] abbreviates: oral 1.0 mg/kg 14:0 lyso PG, then verapamil, then Fingolimod infusion.

IKr, sequence (Q12809 whole entry): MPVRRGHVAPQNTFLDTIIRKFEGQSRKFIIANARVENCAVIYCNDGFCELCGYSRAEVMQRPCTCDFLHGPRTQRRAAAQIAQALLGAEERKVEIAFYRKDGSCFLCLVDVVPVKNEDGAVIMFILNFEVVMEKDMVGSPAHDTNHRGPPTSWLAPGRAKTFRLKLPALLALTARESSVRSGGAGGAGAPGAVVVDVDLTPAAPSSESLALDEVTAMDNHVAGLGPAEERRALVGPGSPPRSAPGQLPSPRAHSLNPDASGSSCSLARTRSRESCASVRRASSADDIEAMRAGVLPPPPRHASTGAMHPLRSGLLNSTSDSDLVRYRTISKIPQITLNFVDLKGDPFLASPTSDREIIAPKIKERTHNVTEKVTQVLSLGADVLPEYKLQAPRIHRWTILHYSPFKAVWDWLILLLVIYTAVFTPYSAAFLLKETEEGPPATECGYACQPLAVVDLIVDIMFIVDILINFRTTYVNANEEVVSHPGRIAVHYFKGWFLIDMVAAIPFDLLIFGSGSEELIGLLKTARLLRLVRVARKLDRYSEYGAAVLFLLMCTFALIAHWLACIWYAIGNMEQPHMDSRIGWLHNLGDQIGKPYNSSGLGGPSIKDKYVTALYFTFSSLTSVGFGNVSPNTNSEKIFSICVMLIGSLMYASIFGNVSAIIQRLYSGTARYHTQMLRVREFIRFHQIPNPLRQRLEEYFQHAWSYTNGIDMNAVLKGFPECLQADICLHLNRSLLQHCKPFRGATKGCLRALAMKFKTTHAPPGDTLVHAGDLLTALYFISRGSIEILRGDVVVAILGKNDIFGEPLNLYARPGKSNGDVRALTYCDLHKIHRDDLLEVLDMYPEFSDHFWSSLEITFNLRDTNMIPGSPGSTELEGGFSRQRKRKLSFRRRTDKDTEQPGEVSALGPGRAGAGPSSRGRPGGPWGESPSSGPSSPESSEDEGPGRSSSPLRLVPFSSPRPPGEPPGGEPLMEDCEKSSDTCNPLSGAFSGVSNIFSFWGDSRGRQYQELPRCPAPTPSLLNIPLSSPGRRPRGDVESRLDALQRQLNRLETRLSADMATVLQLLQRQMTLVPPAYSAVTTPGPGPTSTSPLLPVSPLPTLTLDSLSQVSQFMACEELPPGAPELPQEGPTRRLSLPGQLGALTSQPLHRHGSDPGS

As for `CCCCCCCCCCCCCC(=O)OC[C@@H](O)COP(=O)(O)OCC(O)CO` (mixture of isomers) [14:0 lyso PG, 1-myristoyl-2-hydroxy-sn-glycero-3-phospho-(1′-rac-glycerol)], the “changes in QTc” value in the data set with guinea pigs [1] (concomitant oral 14:0 lyso PG with Moxifloxacin, 14:0 lyso PG:Moxifloxacin ratio 0.45:1, n=6) is given as “no, or very little, changes in QTc”. Also, in the data set on guinea pigs [1] (concomitant oral 14:0 lyso PG, ratio 0.45:1), the “shift in the QTc-dose response of Moxifloxacin” value is on record as “statistically significant right-shift”. Moreover, the “change in cardiac electrophysiology” value with guinea pigs [2] (guinea pig, in vivo, po, 1 mg/kg) is “no change in cardiac electrophysiology”. Besides, the “QTc prolongation for any given dose of Fingolimod relative to verapamil+Fingolimod animals” value in the data set on guinea pigs [2] (oral 1.0 mg/kg 14:0 lyso PG, then 0.5 mg/kg verapamil i.v. at 60 min, Fingolimod i.v. at 120 min) was “⅓”. Besides, the “Maximum Tolerated Dose (MTD)” value with guinea pigs [2] (oral gavage formulation) is listed as “greater than the highest achievable dose in the oral formulation”. Besides, in the data set with guinea pigs [3] (setting [7]), the “right-shift of the appearance of 3rd-degree AV block compared to Fingolimod alone” value is 13 fold; the “right-shift of the appearance of 3rd-degree AV block compared to animals receiving both Fingolimod and verapamil” value came to 6.6 fold. In data set [4] (exposure levels used in the curcumin Phase 1a and Phase 1b clinical trials), the adverse effects entry was “devoid of adverse effects”. For the same compound, the “clinical efficacy against curcumin: QT and QTc interval prolongation” value in data set [4] (ongoing Phase 1b study, human patients) is “preventing QT and QTc interval prolongation”. Also, the “tolerability in clinical trials” value in data set [4] (orally-administered) is “well-tolerated”. In data set [5], the “QTc prolongation by other drugs” value is listed as “prevents”.
As for `CCCCCCCCc1ccc(CCC(N)(CO)CO)cc1` [Fingolimod], in the data set on guinea pigs [3] (setting [8]), the “Fingolimod dose at 1st-degree AV block” value came out at 0.007 mg/kg; the “Fingolimod dose at 3rd-degree dissociation between P waves and QRS complexes” value is 0.045 mg/kg; the “Fingolimod dose at Mobitz-Type-1 2nd degree AV block” value worked out at 0.01 mg/kg. Further, in the data set on guinea pigs [3] (setting [9]), the “Fingolimod dose at 1st degree AV block” value was 0.015 mg/kg; the “Fingolimod dose at 3rd degree AV block” value was determined as 0.023 mg/kg; the “Fingolimod dose at Mobitz Type-1, 2nd-degree AV block” value worked out at 0.02 mg/kg. In addition, the “Fingolimod dose at 1st-degree AV block” value in the data set with guinea pigs [3] (oral 1.0 mg/kg 14:0 lyso PG, 0.5 mg/kg verapamil i.v. 60 min later, Fingolimod infusion 60 min post-verapamil) was 0.2 mg/kg. For the same compound, in the data set with guinea pigs [3] (setting [10]), the “Fingolimod dose at P-QRS dissociation, in the rest of the animals in the cohort” value stood at 0.3 mg/kg; the “Fingolimod dose at P-QRS dissociation, in the two animals with Mobitz-Type-2 AV block” value is 0.051 mg/kg; the “animals with Mobitz-Type-2 AV block” value was 2 out of 6. Moreover, the “changes in PR intervals” value in the data set on guinea pigs [3] (oral 1.0 mg/kg 14:0 lyso PG, then verapamil, then Fingolimod infusion, up to a dose of 200 μg/kg) is given as “modest changes in PR intervals”. In data set [6] (Full Prescribing Information, Novartis), the “AV block in human patients” value is “produce AV block from the first dose”. Besides, in data set [6] (administered alone in healthy, naive animals and clinical volunteers), the QT/QTc prolongation result was “limited QT/QTc prolongation”. In data set [6] (clinical patients taking verapamil along with Fingolimod), the QTc intervals result is “severely prolonged QTc intervals”. The delays in repolarization in data set [6] (therapeutic doses, in a pair of individuals (EMA Assessment Report)) is on record as 60 ms. The IKr inhibition entry at IKr is given as “approximately 64%”.

Source of the values: patent US11806401B2, “Prevention of drug-induced atrio-ventricular block” (SignPath Pharma Inc., priority 2016, dated 2023).
